{
  "source": "patent US7199114B2",
  "about": "“Triterpene quaternary salts as biologically active surfactants” (The Regents of the University of Minnesota, priority 2002, dated 2007)",
  "key": {"[1]": {"assay": "Turf plot trial at Clemson University (Example 85), turf quality", "type": "in vivo, creeping bentgrass, cv. Pennlinks", "conditions": "1 to 9 scale, 50 grams active ingredient per 1000 square feet", "experimental": "(§1) Plots of creeping bentgrass, cv. “Pennlinks,” were treated with water based sprays of the test compounds. Sprays were delivered by CO2-charged sprayer to deliver the equivalent of 2 gallons of spray per 1000 sq. ft of plot area. Plots were 15 sq. ft. each, and treatments were mixed to apply material to 75 sq. ft (5 replicates), although only 4 replicates were treated. […] Daconil Ultrex® was applied at 3.2 oz./1000 sq. ft. for 14 days. The experiment used a randomized complete block design, with 4 replicates per treatment. Disease pressure was high. Pennlinks […] is moderately to highly susceptible to both dollar spot and brown patch. For brown patch, caused by Rhozoctonia sofani. a visual estimate of the percent of the plot area affected was recorded. Turf quality was estimated on a 1 to 9 scale, with 1 being worst and 9 being perfect. A rating of 6 is considered acceptable.\n(§2) Plots of creeping bentgrass, cv. Pennlinks, were treated with water-based sprays as in Example 84 at Clemson University. Treatment application dates were May 7. May 14, May 28, and June 11. Plots were rated visually, estimating the percent of the area affected by dollar spot fungus […]. Turf quality was rated on a 1 to 9 scale, with 9 being perfect turf, as in Example 84. Disease pressure was moderately high to high when the trial was initiated, with existing dollar spot present."}, "dollar spot fungus": {"system": "dollar spot fungus", "assay": "Turf plot trial at Clemson University (Example 85), area affected by dollar spot", "type": "in vivo, Agrostis stolonifera", "conditions": "50 grams active ingredient per 1000 square feet", "experimental": "as §1, §2"}, "[2]": {"system": "dollar spot fungus (Agrostis stolonifera)", "assay": "Turf plot trial at Clemson University (Example 85), area affected by dollar spot", "type": "in vivo", "conditions": "for % of area infected: 50 grams active ingredient per 1000 square feet", "experimental": "as §1, §2"}},
  "data": [
    {"smiles": "C=C(C)[C@@H]1CC[C@]2(COC(=O)C[N+](C)(C)CCCCCCCCCCCCCC)CC[C@]3(C)C(CCC4[C@@]5(C)CC[C@H](OC(=O)C[N+](C)(C)CCCCCCCCCCCCCC)C(C)(C)C5CC[C@]43C)C12.[Cl-].[Cl-]", "note": "(stereo partly shown) [Compound 55, Lup-20(29)-ene-3,28-bis(tetradecyldimethylamoniumacetate) dichloride]", "values": [
      {"measurement": "Turf quality", "setting": "[1]; Table 5, Jun. 3, 2002", "result": 5.10, "unit": "ab"},
      {"measurement": "Turf quality", "setting": "[1]; Table 5, Jun. 17, 2002", "result": 5.2, "unit": "ab"},
      {"measurement": "Turf quality", "setting": "[1]; Table 5, May 27, 2002", "result": 3.38, "unit": "ab"},
      {"measurement": "Turf quality", "setting": "[1]; Table 6, May 8, 2002", "result": 3.05, "unit": "a"},
      {"measurement": "Turf quality", "setting": "[1]; Table 6, May 13, 2002", "result": 3.00, "unit": "a"},
      {"measurement": "Turf quality", "setting": "[1]; Table 6, May 20, 2002", "result": 2.97, "unit": "ab"},
      {"measurement": "% of area infected", "setting": "dollar spot fungus; Table 5 c2, Jun. 3, 2002", "result": 28.8, "unit": "a %"},
      {"measurement": "% of area infected", "setting": "dollar spot fungus; Table 5 c4, Jun. 3, 2002", "result": 24.3, "unit": "a %"},
      {"measurement": "% of area infected", "setting": "dollar spot fungus; Table 6, May 8, 2002", "result": 33.5, "unit": "a %"},
      {"measurement": "% of area infected", "setting": "dollar spot fungus; Table 6, May 13, 2002", "result": 30.0, "unit": "a %"},
      {"measurement": "% of area infected", "setting": "dollar spot fungus; Table 6, May 20, 2002", "result": 32.8, "unit": "b %"},
      {"measurement": "% of area infected", "setting": "dollar spot fungus; Table 6, May 27, 2002", "result": 29.3, "unit": "a-d %"}
    ]},
    {"smiles": "C=C(C)[C@@H]1CC[C@]2(CO)CC[C@]3(C)C(CCC4[C@@]5(C)CC[C@H](OC(=O)C[N+](C)(CCCCCCCCCC)CCCCCCCCCC)C(C)(C)C5CC[C@]43C)C12.[Cl-]", "note": "(stereo partly shown) [Compound 67, Betulin-3-(didecylmethylammoniumacetoxy) chloride]", "values": [
      {"measurement": "Turf quality", "setting": "[1]; Table 5, Jun. 3, 2002", "result": 6.00, "unit": "a"},
      {"measurement": "Turf quality", "setting": "[1]; Table 5, Jun. 17, 2002", "result": 5.80, "unit": "a"},
      {"measurement": "Turf quality", "setting": "[1]; Table 5, May 27, 2002", "result": 4.85, "unit": "a"},
      {"measurement": "Turf quality", "setting": "[1]; Table 6, May 8, 2002", "result": 3.20, "unit": "a"},
      {"measurement": "Turf quality", "setting": "[1]; Table 6, May 13, 2002", "result": 3.17, "unit": "a"},
      {"measurement": "Turf quality", "setting": "[1]; Table 6, May 20, 2002", "result": 3.55, "unit": "a"},
      {"measurement": "% of area infected", "setting": "[2]; Table 5 c2, Jun. 3, 2002", "result": 13.0, "unit": "b %"},
      {"measurement": "% of area infected", "setting": "[2]; Table 5 c4, Jun. 3, 2002", "result": 9.0, "unit": "b %"},
      {"measurement": "% of area infected", "setting": "[2]; Table 6, May 8, 2002", "result": 28.3, "unit": "a %"},
      {"measurement": "% of area infected", "setting": "[2]; Table 6, May 13, 2002", "result": 26.0, "unit": "a %"},
      {"measurement": "% of area infected", "setting": "[2]; Table 6, May 20, 2002", "result": 24.3, "unit": "c %"},
      {"measurement": "% of area infected", "setting": "[2]; Table 6, May 27, 2002", "result": 21.0, "unit": "d %"},
      {"measurement": "extent of dollar spot infection", "setting": "[2]; by the end of the treatment trial, compared to the no treatment control (text summary of Tables 5 and 6)", "result": "best results"}
    ]},
    {"smiles": "C=C(C)[C@@H]1CC[C@]2(COC(=O)C[N+](C)(C)CCCCCCCC)CC[C@]3(C)C(CCC4[C@@]5(C)CC[C@H](OC(=O)C[N+](C)(C)CCCCCCCC)C(C)(C)C5CC[C@]43C)C12.[Cl-].[Cl-]", "note": "(stereo partly shown) [Compound 53, Lup-20(29)-ene-3,28-bis(octyldimethylammoniumacetate) dichloride]", "values": [
      {"measurement": "Turf quality", "setting": "[1]; Table 5, Jun. 3, 2002", "result": 5.18, "unit": "ab"},
      {"measurement": "Turf quality", "setting": "[1]; Table 5, Jun. 17, 2002", "result": 5.38, "unit": "ab"},
      {"measurement": "Turf quality", "setting": "[1]; Table 5, May 27, 2002", "result": 3.60, "unit": "ab"},
      {"measurement": "Turf quality", "setting": "[1]; Table 6, May 8, 2002", "result": 3.00, "unit": "a"},
      {"measurement": "Turf quality", "setting": "[1]; Table 6, May 13, 2002", "result": 3.05, "unit": "a"},
      {"measurement": "Turf quality", "setting": "[1]; Table 6, May 20, 2002", "result": 3.25, "unit": "ab"},
      {"measurement": "% of area infected", "setting": "dollar spot fungus; Table 5 c2, Jun. 3, 2002", "result": 22.5, "unit": "a %"},
      {"measurement": "% of area infected", "setting": "dollar spot fungus; Table 5 c4, Jun. 3, 2002", "result": 19.5, "unit": "ab %"},
      {"measurement": "% of area infected", "setting": "dollar spot fungus; Table 6, May 8, 2002", "result": 33.5, "unit": "a %"},
      {"measurement": "% of area infected", "setting": "dollar spot fungus; Table 6, May 13, 2002", "result": 28.5, "unit": "a %"},
      {"measurement": "% of area infected", "setting": "dollar spot fungus; Table 6, May 20, 2002", "result": 27.3, "unit": "bc %"},
      {"measurement": "% of area infected", "setting": "dollar spot fungus; Table 6, May 27, 2002", "result": 26.8, "unit": "bcd %"}
    ]},
    {"smiles": "C=C(C)[C@@H]1CC[C@]2(COC(=O)C[n+]3ccc(N(C)C)cc3)CC[C@]3(C)C(CCC4[C@@]5(C)CC[C@H](OC(=O)C[n+]6ccc(N(C)C)cc6)C(C)(C)C5CC[C@]43C)C12.[Cl-].[Cl-]", "note": "(stereo partly shown) [Compound 46, Lup-20(29)-ene-3,28-bis[N-(4-dimethylaminopyridinium)acetate] dichloride]", "values": [
      {"measurement": "Turf quality", "setting": "[1]; Table 5, Jun. 3, 2002", "result": 5.40, "unit": "ab"},
      {"measurement": "Turf quality", "setting": "[1]; Table 5, Jun. 17, 2002", "result": 4.52, "unit": "ab"},
      {"measurement": "Turf quality", "setting": "[1]; Table 5, May 27, 2002", "result": 4.00, "unit": "ab"},
      {"measurement": "Turf quality", "setting": "[1]; Table 6, May 8, 2002", "result": 3.25, "unit": "a"},
      {"measurement": "Turf quality", "setting": "[1]; Table 6, May 13, 2002", "result": 3.38, "unit": "a"},
      {"measurement": "Turf quality", "setting": "[1]; Table 6, May 20, 2002", "result": 3.50, "unit": "a"},
      {"measurement": "% of area infected", "setting": "[2]; Table 5 c2, Jun. 3, 2002", "result": 23.5, "unit": "a %"},
      {"measurement": "% of area infected", "setting": "[2]; Table 5 c4, Jun. 3, 2002", "result": 24.0, "unit": "a %"},
      {"measurement": "% of area infected", "setting": "[2]; Table 6, May 8, 2002", "result": 30.5, "unit": "a %"},
      {"measurement": "% of area infected", "setting": "[2]; Table 6, May 13, 2002", "result": 28.0, "unit": "a %"},
      {"measurement": "% of area infected", "setting": "[2]; Table 6, May 20, 2002", "result": 25.0, "unit": "bc %"},
      {"measurement": "% of area infected", "setting": "[2]; Table 6, May 27, 2002", "result": 26.8, "unit": "bcd %"}
    ]}
  ]
}
